{
  "source": "patent USRE50724E1",
  "about": "“4-membered ring carboxamides used as nematicides” (SYNGENTA CROP PROTECTION AG, priority 2013, dated 2026)",
  "data": [
    {"test_system": "Heterodera schachtii", "experiment": "Heterodera schachtii (sugar beet cyst nematode), nematicide, contact activity: juvenile paralysis in 16-well assay plates", "type": "in vivo", "conditions": "200 ppm, approx. 500 juveniles per well, 24 hours incubation at 25° C. in darkness, read-out: nematode immobilization compared to the untreated control", "description": "(§1) Heterodera schachtii (Sugar Beet Cyst Nematode), Nematicide, Contact Activity\n(§2) The tested application rate of each compound was 200 ppm. All solutions were brought to a concentration of 400 ppm, respectively, as they were subsequently diluted by adding the equivalent amount of water containing juvenile nematodes. After preparation of the suspensions, 1 ml of each suspension and concentration was transferred to 16-well assay plates with a total of three replicates per treatment. Approximately 500 juveniles of Heterodera schachtii were added in 1 ml of water to each well. Nematodes in water served as controls. The plates were placed in a dark box and stored at room temperature. Nematode paralysis was determined after 24 hours incubation at 25° C. in darkness.", "units": {"pest or weed control at 200 ppm": "%"}, "values": [
      {"compound": "O=C(N[C@H]1CC[C@H]1c1ccc(Cl)cc1Cl)c1nccnc1Cl", "note": "[Compound 61.3, 3-chloro-N-[(1S,2S)-2-(2,4-dichlorophenyl)cyclobutyl]pyrazine-2-carboxamide]", "pest or weed control at 200 ppm": "> 75"},
      {"compound": "O=C(N[C@H]1CC[C@H]1c1ccc(Cl)cc1Cl)c1ncccc1C(F)(F)F", "note": "[Compound 61.4, N-[(1S,2S)-2-(2,4-dichlorophenyl)cyclobutyl]-3-(trifluoromethyl)pyridine-2-carboxamide]", "pest or weed control at 200 ppm": "> 75"},
      {"compound": "COc1cccnc1C(=O)N[C@H]1CC[C@H]1c1ccc(Cl)cc1", "note": "[Compound 61.11, N-[(1S,2S)-2-(4-chlorophenyl)cyclobutyl]-3-methoxypyridine-2-carboxamide]", "pest or weed control at 200 ppm": "> 75"},
      {"compound": "O=C(N[C@H]1CC[C@H]1c1ccc(Cl)cc1)c1sccc1Br", "note": "[Compound 61.14, 3-bromo-N-[(1S,2S)-2-(4-chlorophenyl)cyclobutyl]thiophene-2-carboxamide]", "pest or weed control at 200 ppm": "> 75"},
      {"compound": "O=C(N[C@H]1CC[C@H]1c1ccc(Cl)cc1)c1ncccc1Br", "note": "[Compound 61.15, 3-bromo-N-[(1S,2S)-2-(4-chlorophenyl)cyclobutyl]pyridine-2-carboxamide]", "pest or weed control at 200 ppm": "> 75"},
      {"compound": "O=C(N[C@H]1CC[C@H]1c1ccc(Cl)cc1)c1ccccc1Br", "note": "[Compound 61.21, 2-bromo-N-[(1S,2S)-2-(4-chlorophenyl)cyclobutyl]benzamide]", "pest or weed control at 200 ppm": "> 75"},
      {"compound": "O=C(N[C@H]1CC[C@H]1c1ccc(Cl)cc1)c1c(F)cccc1Cl", "note": "[Compound 61.22, 2-chloro-N-[(1S,2S)-2-(4-chlorophenyl)cyclobutyl]-6-fluorobenzamide]", "pest or weed control at 200 ppm": "> 75"},
      {"compound": "Cc1ncccc1C(=O)N[C@H]1CC[C@H]1c1ccc(Cl)cc1", "note": "[Compound 61.23, N-[(1S,2S)-2-(4-chlorophenyl)cyclobutyl]-2-methylpyridine-3-carboxamide]", "pest or weed control at 200 ppm": "> 75"},
      {"compound": "COc1cccc(F)c1C(=O)N[C@H]1CC[C@H]1c1ccc(Cl)cc1", "note": "[Compound 61.24, N-[(1S,2S)-2-(4-chlorophenyl)cyclobutyl]-2-fluoro-6-methoxybenzamide]", "pest or weed control at 200 ppm": "> 75"},
      {"compound": "Cc1cccc(F)c1C(=O)N[C@H]1CC[C@H]1c1ccc(Cl)cc1", "note": "[Compound 61.25, N-[(1S,2S)-2-(4-chlorophenyl)cyclobutyl]-2-fluoro-6-methylbenzamide]", "pest or weed control at 200 ppm": "> 75"},
      {"compound": "Cc1nccnc1C(=O)N[C@H]1CC[C@H]1c1ccc(Cl)cc1", "note": "[Compound 61.26, N-[(1S,2S)-2-(4-chlorophenyl)cyclobutyl]-3-methylpyrazine-2-carboxamide]", "pest or weed control at 200 ppm": "> 75"},
      {"compound": "O=C(N[C@H]1CC[C@H]1c1ccc(Cl)cc1)c1sccc1Cl", "note": "[Compound 61.36, 3-chloro-N-[(1S,2S)-2-(4-chlorophenyl)cyclobutyl]thiophene-2-carboxamide]", "pest or weed control at 200 ppm": "> 75"},
      {"compound": "O=C(N[C@H]1CC[C@H]1c1ccc(Cl)cc1)c1ncccc1Cl", "note": "[Compound 61.46, 3-chloro-N-[(1S,2S)-2-(4-chlorophenyl)cyclobutyl]pyridine-2-carboxamide]", "pest or weed control at 200 ppm": "> 75"},
      {"compound": "O=C(N[C@H]1CC[C@H]1c1ccc(Cl)cc1)c1ncccn1", "note": "[Compound 61.47, N-[(1S,2S)-2-(4-chlorophenyl)cyclobutyl]pyrimidine-2-carboxamide]", "pest or weed control at 200 ppm": "> 75"},
      {"compound": "O=C(N[C@H]1CC[C@H]1c1ccc(Cl)cc1)c1ccsc1Cl", "note": "[Compound 61.52, 2-chloro-N-[(1S,2S)-2-(4-chlorophenyl)cyclobutyl]thiophene-3-carboxamide]", "pest or weed control at 200 ppm": "> 75"},
      {"compound": "O=C(N[C@H]1CC[C@H]1c1ccc(Cl)cc1)c1ccsc1I", "note": "[Compound 61.53, N-[(1S,2S)-2-(4-chlorophenyl)cyclobutyl]-2-iodothiophene-3-carboxamide]", "pest or weed control at 200 ppm": "> 75"},
      {"compound": "O=C(N[C@H]1CC[C@H]1c1ccc(Cl)cc1)c1ccsc1C(F)(F)F", "note": "[Compound 61.54, N-[(1S,2S)-2-(4-chlorophenyl)cyclobutyl]-2-(trifluoromethyl)thiophene-3-carboxamide]", "pest or weed control at 200 ppm": "> 75"},
      {"compound": "COc1cccnc1C(=O)N[C@H]1CC[C@H]1c1ccc(Cl)cc1Cl", "note": "[Compound 61.56, N-[(1S,2S)-2-(2,4-dichlorophenyl)cyclobutyl]-3-methoxypyridine-2-carboxamide]", "pest or weed control at 200 ppm": "> 75"},
      {"compound": "COc1ccccc1C(=O)N[C@H]1CC[C@H]1c1ccc(Cl)cc1Cl", "note": "[Compound 61.58, N-[(1S,2S)-2-(2,4-dichlorophenyl)cyclobutyl]-2-methoxybenzamide]", "pest or weed control at 200 ppm": "> 75"},
      {"compound": "O=C(N[C@H]1CC[C@H]1c1ccc(Cl)cc1Cl)c1sccc1Br", "note": "[Compound 61.59, 3-bromo-N-[(1S,2S)-2-(2,4-dichlorophenyl)cyclobutyl]thiophene-2-carboxamide]", "pest or weed control at 200 ppm": "> 75"},
      {"compound": "Cc1ccccc1C(=O)N[C@H]1CC[C@H]1c1ccc(Cl)cc1Cl", "note": "[Compound 61.62, N-[(1S,2S)-2-(2,4-dichlorophenyl)cyclobutyl]-2-methylbenzamide]", "pest or weed control at 200 ppm": "> 75"},
      {"compound": "O=C(N[C@H]1CC[C@H]1c1ccc(Cl)cc1Cl)c1ccccc1F", "note": "[Compound 61.65, N-[(1S,2S)-2-(2,4-dichlorophenyl)cyclobutyl]-2-fluorobenzamide]", "pest or weed control at 200 ppm": "> 75"},
      {"compound": "Cc1nccnc1C(=O)N[C@H]1CC[C@H]1c1ccc(Cl)cc1Cl", "note": "[Compound 61.70, N-[(1S,2S)-2-(2,4-dichlorophenyl)cyclobutyl]-3-methylpyrazine-2-carboxamide]", "pest or weed control at 200 ppm": "> 75"},
      {"compound": "O=C(N[C@H]1CC[C@H]1c1ccc(Cl)cc1Cl)c1ccc[nH]1", "note": "[Compound 61.72, N-[(1S,2S)-2-(2,4-dichlorophenyl)cyclobutyl]-1H-pyrrole-2-carboxamide]", "pest or weed control at 200 ppm": "> 75"},
      {"compound": "Cc1ncoc1C(=O)N[C@H]1CC[C@H]1c1ccc(Cl)cc1Cl", "note": "[Compound 61.73, N-[(1S,2S)-2-(2,4-dichlorophenyl)cyclobutyl]-4-methyl-1,3-oxazole-5-carboxamide]", "pest or weed control at 200 ppm": "> 75"},
      {"compound": "Cc1nscc1C(=O)N[C@H]1CC[C@H]1c1ccc(Cl)cc1Cl", "note": "[Compound 61.74, N-[(1S,2S)-2-(2,4-dichlorophenyl)cyclobutyl]-3-methyl-1,2-thiazole-4-carboxamide]", "pest or weed control at 200 ppm": "> 75"},
      {"compound": "O=C(N[C@H]1CC[C@H]1c1ccc(Cl)cc1Cl)c1sccc1Cl", "note": "[Compound 61.79, 3-chloro-N-[(1S,2S)-2-(2,4-dichlorophenyl)cyclobutyl]thiophene-2-carboxamide]", "pest or weed control at 200 ppm": "> 75"},
      {"compound": "O=C(N[C@H]1CC[C@H]1c1ccc(Cl)cc1Cl)c1ccccc1OC(F)(F)F", "note": "[Compound 61.81, N-[(1S,2S)-2-(2,4-dichlorophenyl)cyclobutyl]-2-(trifluoromethoxy)benzamide]", "pest or weed control at 200 ppm": "> 75"},
      {"compound": "Cc1oncc1C(=O)N[C@H]1CC[C@H]1c1ccc(Cl)cc1Cl", "note": "[Compound 61.83, N-[(1S,2S)-2-(2,4-dichlorophenyl)cyclobutyl]-5-methyl-1,2-oxazole-4-carboxamide]", "pest or weed control at 200 ppm": "> 75"},
      {"compound": "O=C(N[C@H]1CC[C@H]1c1ccc(Cl)cc1Cl)c1c(F)cccc1C(F)(F)F", "note": "[Compound 61.84, N-[(1S,2S)-2-(2,4-dichlorophenyl)cyclobutyl]-2-fluoro-6-(trifluoromethyl)benzamide]", "pest or weed control at 200 ppm": "> 75"},
      {"compound": "O=C(N[C@H]1CC[C@H]1c1ccc(Cl)cc1Cl)C1=C(C(F)(F)F)OCCS1", "note": "[Compound 61.85, N-[(1S,2S)-2-(2,4-dichlorophenyl)cyclobutyl]-6-(trifluoromethyl)-2,3-dihydro-1,4-oxathiine-5-carboxamide]", "pest or weed control at 200 ppm": "> 75"},
      {"compound": "CC1=C(C(=O)N[C@H]2CC[C@H]2c2ccc(Cl)cc2Cl)SCCO1", "note": "[Compound 61.86, N-[(1S,2S)-2-(2,4-dichlorophenyl)cyclobutyl]-6-methyl-2,3-dihydro-1,4-oxathiine-5-carboxamide]", "pest or weed control at 200 ppm": "> 75"},
      {"compound": "O=C(N[C@H]1CC[C@H]1c1ccc(Cl)cc1Cl)c1ccsc1Br", "note": "[Compound 61.87, 2-bromo-N-[(1S,2S)-2-(2,4-dichlorophenyl)cyclobutyl]thiophene-3-carboxamide]", "pest or weed control at 200 ppm": "> 75"},
      {"compound": "O=C(N[C@H]1CC[C@H]1c1ccc(Cl)cc1Cl)c1cscn1", "note": "[Compound 61.88, N-[(1S,2S)-2-(2,4-dichlorophenyl)cyclobutyl]-1,3-thiazole-4-carboxamide]", "pest or weed control at 200 ppm": "> 75"},
      {"compound": "O=C(N[C@H]1CC[C@H]1c1ccc(Cl)cc1Cl)c1ccccc1Cl", "note": "[Compound 61.89, 2-chloro-N-[(1S,2S)-2-(2,4-dichlorophenyl)cyclobutyl]benzamide]", "pest or weed control at 200 ppm": "> 75"},
      {"compound": "O=C(N[C@H]1CC[C@H]1c1ccc(Cl)cc1Cl)c1ncccn1", "note": "[Compound 61.90, N-[(1S,2S)-2-(2,4-dichlorophenyl)cyclobutyl]pyrimidine-2-carboxamide]", "pest or weed control at 200 ppm": "> 75"},
      {"compound": "N#Cc1ccccc1C(=O)N[C@H]1CC[C@H]1c1ccc(Cl)cc1Cl", "note": "[Compound 61.91, 2-cyano-N-[(1S,2S)-2-(2,4-dichlorophenyl)cyclobutyl]benzamide]", "pest or weed control at 200 ppm": "> 75"},
      {"compound": "Cc1cccnc1C(=O)N[C@H]1CC[C@H]1c1ccc(Cl)cc1Cl", "note": "[Compound 61.92, N-[(1S,2S)-2-(2,4-dichlorophenyl)cyclobutyl]-3-methylpyridine-2-carboxamide]", "pest or weed control at 200 ppm": "> 75"},
      {"compound": "O=C(N[C@H]1CC[C@H]1c1ccc(Cl)cc1Cl)c1ccsc1I", "note": "[Compound 61.96, N-[(1S,2S)-2-(2,4-dichlorophenyl)cyclobutyl]-2-iodothiophene-3-carboxamide]", "pest or weed control at 200 ppm": "> 75"}
    ]},
    {"test_system": "Heterodera schachtii", "experiment": "Heterodera schachtii (sugar beet cyst nematode), nematicide, contact activity: juvenile paralysis in 16-well assay plates", "type": "in vivo", "conditions": "24 h, read-out: nematode immobilization compared to the untreated control", "description": "as §1, §2", "units": {"pest or weed control at 200 ppm": "%"}, "values": [
      {"compound": "Cc1nc(C(F)(F)F)c(C(=O)N[C@H]2CC[C@H]2c2ccc(Cl)cc2Cl)s1", "note": "[Compound 61.93, N-[(1S,2S)-2-(2,4-dichlorophenyl)cyclobutyl]-2-methyl-4-(trifluoromethyl)-1,3-thiazole-5-carboxamide]", "pest or weed control at 200 ppm": "> 75"}
    ]}
  ]
}
